Measured values as given in ChEMBL document CHEMBL1128933, “Structural comparison of alkylpolyamine analogues with potent in vitro antitumor or antiparasitic activity” (Bioorg Med Chem Lett, 1996).

Tests used:
Trypanosoma brucei [1] = assay: Compound was evaluated for growth brucei K269 strain.; format: functional, organism-based
NCI-H157 = assay: Compound was evaluated for inhibitory activity against H157 non-small cell lung carcinoma.; format: functional, cell-based; conditions: Homo sapiens
Trypanosoma brucei [2] = assay: Compound was evaluated for growth brucei K243 As-10-3 strain.; format: functional, organism-based
Trypanosoma brucei [3] = assay: Compound was evaluated for growth brucei K243 strain.; format: functional, organism-based
Trypanosoma brucei [4] = assay: Compound was evaluated for growth brucei LAB 110 strain.; format: functional, organism-based
NCH82 = assay: Compound was evaluated for inhibitory activity against H82 small cell lung carcinoma.; format: functional, cell-based; conditions: Homo sapiens

Structure (SMILES): C#CCNCCCNCCCNCCCNCC
- IC50 (Trypanosoma brucei [1]): > 100 µM
- IC50 (NCI-H157): 0.7 µM
- IC50 (Trypanosoma brucei [2]): > 100 µM
- IC50 (Trypanosoma brucei [3]): > 100 µM
- IC50 (Trypanosoma brucei [4]): > 100 µM
- IC50 (NCH82): 5.2 µM

Structure (SMILES): CCNCCCNCCCNCCCNCC1CCCCCC1
- IC50 (Trypanosoma brucei [1]): > 100 µM
- IC50 (NCI-H157): 0.5 µM
- IC50 (Trypanosoma brucei [2]): > 100 µM
- IC50 (Trypanosoma brucei [3]): > 100 µM
- IC50 (Trypanosoma brucei [4]): > 100 µM
- IC50 (NCH82): 1.7 µM

Structure (SMILES): C(CCCNCCCNCC1CCCCCC1)CCCNCCCNCC1CCCCCC1
- IC50 (Trypanosoma brucei [1]): 0.69 µM
- IC50 (NCI-H157): 2.1 µM
- IC50 (Trypanosoma brucei [2]): 0.78 µM
- IC50 (Trypanosoma brucei [3]): 0.98 µM
- IC50 (Trypanosoma brucei [4]): 0.125 µM
- IC50 (NCH82): 1.5 µM

Structure (SMILES): CCNCCCNCCCCCCCNCCCNCC1CCCCCC1
- IC50 (Trypanosoma brucei [1]): 21 µM
- IC50 (NCI-H157): > 10 µM
- IC50 (Trypanosoma brucei [2]): 26.2 µM
- IC50 (Trypanosoma brucei [3]): 18.4 µM
- IC50 (Trypanosoma brucei [4]): 18 µM
- IC50 (NCH82): 9 µM

Structure (SMILES): c1ccc(CNCCCNCCCCCCCNCCCNCc2ccccc2)cc1
- IC50 (Trypanosoma brucei [1]): 12.3 µM
- IC50 (Trypanosoma brucei [2]): 13 µM
- IC50 (Trypanosoma brucei [3]): 15.1 µM
- IC50 (Trypanosoma brucei [4]): 14.5 µM

Structure (SMILES): CCNCCCNCCCNCCCNCC1CC1
- IC50 (Trypanosoma brucei [1]): > 100 µM
- IC50 (NCI-H157): 0.4 µM
- IC50 (Trypanosoma brucei [2]): > 100 µM
- IC50 (Trypanosoma brucei [3]): > 100 µM
- IC50 (Trypanosoma brucei [4]): > 100 µM
- IC50 (NCH82): 0.7 µM

Structure (SMILES): CCNCCCNCCCCNCCCNCC [BIS(ETHYL)SPERMINE]
- IC50 (NCI-H157): 2.9 µM
